{"source": "PubChem BioAssay AID1259407", "about": "(Chemical Carcinogenesis Research Information System (CCRIS), 2018)", "system": "CCRIS mutagenicity, Ames/micronucleus/aberration tests", "experiment": "CCRIS mutagenicity studies", "key": {"[1]": {"conditions": "Test System: AMES SALMONELLA TYPHIMURIUM, Strain/Indicator: TA98, Metabolic Activation: NONE, Method: PREINCUBATION"}, "[2]": {"conditions": "Test System: AMES SALMONELLA TYPHIMURIUM, Strain/Indicator: TA100, Metabolic Activation: NONE, Method: PREINCUBATION"}, "[3]": {"conditions": "Test System: AMES SALMONELLA TYPHIMURIUM, Strain/Indicator: TA100, Metabolic Activation: NONE, Method: STANDARD PLATE"}, "[4]": {"conditions": "Test System: AMES SALMONELLA TYPHIMURIUM, Strain/Indicator: TA100, Metabolic Activation: RAT, LIVER, S-9, AROCLOR 1254, Method: STANDARD PLATE"}, "[5]": {"conditions": "Test System: AMES SALMONELLA TYPHIMURIUM, Strain/Indicator: TA98, Metabolic Activation: NONE, Method: STANDARD PLATE"}, "[6]": {"conditions": "Test System: AMES SALMONELLA TYPHIMURIUM, Strain/Indicator: TA98, Metabolic Activation: S-9, Method: STANDARD PLATE"}, "[7]": {"conditions": "Test System: AMES SALMONELLA TYPHIMURIUM, Strain/Indicator: TA100, Metabolic Activation: S-9, Method: STANDARD PLATE"}, "[8]": {"conditions": "Test System: AMES SALMONELLA TYPHIMURIUM, Strain/Indicator: TA1535, Metabolic Activation: NONE, Method: STANDARD PLATE"}, "[9]": {"conditions": "Test System: AMES SALMONELLA TYPHIMURIUM, Strain/Indicator: TA1537, Metabolic Activation: NONE, Method: STANDARD PLATE"}, "[10]": {"conditions": "Test System: AMES SALMONELLA TYPHIMURIUM, Strain/Indicator: TA98, Metabolic Activation: RAT, LIVER, S-9, AROCLOR 1254, Method: STANDARD PLATE"}, "[11]": {"conditions": "Test System: AMES SALMONELLA TYPHIMURIUM, Strain/Indicator: TA1535, Metabolic Activation: RAT, LIVER, S-9, AROCLOR 1254, Method: STANDARD PLATE"}, "[12]": {"conditions": "Test System: AMES SALMONELLA TYPHIMURIUM, Strain/Indicator: TA1537, Metabolic Activation: RAT, LIVER, S-9, AROCLOR 1254, Method: STANDARD PLATE"}}, "note": "Active and inactive are the calls of the source. The rule behind the calls is not given here."}
{"smiles": "O=C1C=CC(=O)C(c2ccccc2)=C1", "values": [{"measurement": "mutagenic call", "setting": "[1]", "value": "inactive; negative"}, {"measurement": "mutagenic call", "setting": "Test System: AMES SALMONELLA TYPHIMURIUM, Strain/Indicator: TA98, Metabolic Activation: RAT, LIVER, S-9, PHENOBARBITAL AND 5,6-BENZOFLAVONE, Method: PREINCUBATION", "value": "inactive; negative"}, {"measurement": "mutagenic call", "setting": "[2]", "value": "inactive; negative"}, {"measurement": "mutagenic call", "setting": "Test System: AMES SALMONELLA TYPHIMURIUM, Strain/Indicator: TA100, Metabolic Activation: RAT, LIVER, S-9, PHENOBARBITAL AND 5,6-BENZOFLAVONE, Method: PREINCUBATION", "value": "inactive; negative"}, {"measurement": "mutagenic call", "setting": "Test System: AMES SALMONELLA TYPHIMURIUM, Strain/Indicator: TA102, Metabolic Activation: NONE, Method: PREINCUBATION", "value": "inactive; negative"}, {"measurement": "mutagenic call", "setting": "Test System: AMES SALMONELLA TYPHIMURIUM, Strain/Indicator: TA102, Metabolic Activation: RAT, LIVER, S-9, PHENOBARBITAL AND 5,6-BENZOFLAVONE, Method: PREINCUBATION", "value": "inactive; negative"}, {"measurement": "mutagenic call", "setting": "Test System: AMES SALMONELLA TYPHIMURIUM, Strain/Indicator: TA104, Metabolic Activation: NONE, Method: PREINCUBATION", "value": "inactive; negative"}, {"measurement": "mutagenic call", "setting": "Test System: AMES SALMONELLA TYPHIMURIUM, Strain/Indicator: TA104, Metabolic Activation: RAT, LIVER, S-9, PHENOBARBITAL AND 5,6-BENZOFLAVONE, Method: PREINCUBATION", "value": "inactive; negative"}, {"measurement": "mutagenic call", "setting": "Test System: AMES SALMONELLA TYPHIMURIUM, Strain/Indicator: TA2637, Metabolic Activation: NONE, Method: PREINCUBATION", "value": "inactive; negative"}, {"measurement": "mutagenic call", "setting": "Test System: AMES SALMONELLA TYPHIMURIUM, Strain/Indicator: TA2637, Metabolic Activation: RAT, LIVER, S-9, PHENOBARBITAL AND 5,6-BENZOFLAVONE, Method: PREINCUBATION", "value": "inactive; negative"}, {"measurement": "mutagenic call", "setting": "Test System: CHINESE HAMSTER V-79, Strain/Indicator: V-79 (HGPRT)/6-THIOGUANINE, Metabolic Activation: NONE", "value": "inactive; negative"}]}
{"smiles": "O=C(OCCBr)C(=O)OCCBr", "values": [{"measurement": "mutagenic call", "setting": "[3]", "value": "active; positive"}, {"measurement": "mutagenic call", "setting": "[4]", "value": "active; positive"}]}
{"smiles": "CCCCCC(=O)Cc1cc(O)cc2c1C(=O)Oc1cc(O)c(C(=O)O)c(CCCCC)c1O2", "values": [{"measurement": "mutagenic call", "setting": "[1]", "value": "inactive; negative"}, {"measurement": "mutagenic call", "setting": "[5]", "value": "inactive; negative"}, {"measurement": "mutagenic call", "setting": "Test System: AMES SALMONELLA TYPHIMURIUM, Strain/Indicator: TA98, Metabolic Activation: RAT, LIVER, S-9, Method: PREINCUBATION", "value": "inactive; negative"}, {"measurement": "mutagenic call", "setting": "Test System: AMES SALMONELLA TYPHIMURIUM, Strain/Indicator: TA98, Metabolic Activation: RAT, LIVER, S-9, Method: STANDARD PLATE", "value": "inactive; negative"}, {"measurement": "mutagenic call", "setting": "[2]", "value": "inactive; negative"}, {"measurement": "mutagenic call", "setting": "[3]", "value": "inactive; negative"}, {"measurement": "mutagenic call", "setting": "Test System: AMES SALMONELLA TYPHIMURIUM, Strain/Indicator: TA100, Metabolic Activation: RAT, LIVER, S-9, Method: PREINCUBATION", "value": "inactive; negative"}, {"measurement": "mutagenic call", "setting": "Test System: AMES SALMONELLA TYPHIMURIUM, Strain/Indicator: TA100, Metabolic Activation: RAT, LIVER, S-9, Method: STANDARD PLATE", "value": "inactive; negative"}]}
{"smiles": "O=c1c(O[C@@H]2O[C@H](CO)[C@H](O)[C@H](O)[C@H]2O)c(-c2ccc(O)c(O)c2)oc2cc(O)cc(O)c12", "values": [{"measurement": "mutagenic call", "setting": "Test System: Ames Salmonella typhimurium, Strain/Indicator: TA98, Metabolic Activation: None, Method: Standard plate", "value": "inactive; negative"}, {"measurement": "mutagenic call", "setting": "Test System: Ames Salmonella typhimurium, Strain/Indicator: TA98, Metabolic Activation: Rat, Liver, S-9, Aroclor 1254, Method: Standard plate", "value": "inactive; negative"}]}
{"smiles": "COc1ccc(CCl)cc1", "values": [{"measurement": "mutagenic call", "setting": "[3]", "value": "inactive; negative"}]}
{"smiles": "CNc1snc2ccccc12", "values": [{"measurement": "mutagenic call", "setting": "[5]", "value": "inactive; negative"}, {"measurement": "mutagenic call", "setting": "[6]", "value": "inactive; negative"}, {"measurement": "mutagenic call", "setting": "[3]", "value": "inactive; negative"}, {"measurement": "mutagenic call", "setting": "[7]", "value": "inactive; negative"}, {"measurement": "mutagenic call", "setting": "[8]", "value": "inactive; negative"}, {"measurement": "mutagenic call", "setting": "Test System: AMES SALMONELLA TYPHIMURIUM, Strain/Indicator: TA1535, Metabolic Activation: S-9, Method: STANDARD PLATE", "value": "inactive; negative"}, {"measurement": "mutagenic call", "setting": "[9]", "value": "inactive; negative"}, {"measurement": "mutagenic call", "setting": "Test System: AMES SALMONELLA TYPHIMURIUM, Strain/Indicator: TA1537, Metabolic Activation: S-9, Method: STANDARD PLATE", "value": "inactive; negative"}]}
{"smiles": "CC(C)(c1ccc(OP(O)O)cc1)c1ccc(OP(O)O)cc1", "values": [{"measurement": "mutagenic call", "setting": "Test System: AMES SALMONELLA TYPHIMURIUM, Strain/Indicator: TA97, Metabolic Activation: NONE, Method: STANDARD PLATE", "value": "inactive; negative"}, {"measurement": "mutagenic call", "setting": "Test System: AMES SALMONELLA TYPHIMURIUM, Strain/Indicator: TA97, Metabolic Activation: S-9, Method: STANDARD PLATE", "value": "inactive; negative"}, {"measurement": "mutagenic call", "setting": "[5]", "value": "inactive; negative"}, {"measurement": "mutagenic call", "setting": "[6]", "value": "inactive; negative"}, {"measurement": "mutagenic call", "setting": "[3]", "value": "inactive; negative"}, {"measurement": "mutagenic call", "setting": "[7]", "value": "inactive; negative"}, {"measurement": "mutagenic call", "setting": "Test System: AMES SALMONELLA TYPHIMURIUM, Strain/Indicator: TA102, Metabolic Activation: NONE, Method: STANDARD PLATE", "value": "inactive; negative"}, {"measurement": "mutagenic call", "setting": "Test System: AMES SALMONELLA TYPHIMURIUM, Strain/Indicator: TA102, Metabolic Activation: S-9, Method: STANDARD PLATE", "value": "inactive; negative"}, {"measurement": "mutagenic call", "setting": "Test System: E.COLI, Strain/Indicator: WP2 (PKM101), Metabolic Activation: NONE, Method: STANDARD PLATE", "value": "inactive; negative"}, {"measurement": "mutagenic call", "setting": "Test System: E.COLI, Strain/Indicator: WP2 (PKM101), Metabolic Activation: S-9, Method: STANDARD PLATE", "value": "inactive; negative"}]}
{"smiles": "C=CCC1OC(=O)C=CC1O", "note": "(stereo not drawn)", "values": [{"measurement": "mutagenic call", "setting": "[5]", "value": "inactive; negative"}, {"measurement": "mutagenic call", "setting": "[10]", "value": "inactive; negative"}, {"measurement": "mutagenic call", "setting": "[3]", "value": "inactive; negative"}, {"measurement": "mutagenic call", "setting": "[4]", "value": "inactive; negative"}]}
{"smiles": "NCCCNCCCCNCCCN", "values": [{"measurement": "mutagenic call", "setting": "Test System: E. COLI, Strain/Indicator: WP2 UVRA (PKM101), Metabolic Activation: NONE, Method: STANDARD PLATE", "value": "inactive; negative"}, {"measurement": "mutagenic call", "setting": "Test System: E. COLI, Strain/Indicator: WP2 UVRA/OXYR (PKM101), Metabolic Activation: NONE, Method: STANDARD PLATE", "value": "inactive; negative"}]}
{"smiles": "O=C(OCc1ccc(Cl)cc1)c1cccc2cccnc12", "values": [{"measurement": "mutagenic call", "setting": "[5]", "value": "inactive; negative"}, {"measurement": "mutagenic call", "setting": "[10]", "value": "inactive; negative"}, {"measurement": "mutagenic call", "setting": "[3]", "value": "inactive; negative"}, {"measurement": "mutagenic call", "setting": "[4]", "value": "inactive; negative"}, {"measurement": "mutagenic call", "setting": "[8]", "value": "inactive; negative"}, {"measurement": "mutagenic call", "setting": "[11]", "value": "inactive; negative"}, {"measurement": "mutagenic call", "setting": "[9]", "value": "inactive; negative"}, {"measurement": "mutagenic call", "setting": "[12]", "value": "inactive; negative"}]}
{"smiles": "Cc1cc(N(CCO)CCO)ccc1N=Nc1ccc(N)cc1", "values": [{"measurement": "mutagenic call", "setting": "Test System: AMES SALMONELLA TYPHIMURIUM, Strain/Indicator: TA98, Metabolic Activation: HAMSTER, LIVER, S-9, AROCLOR 1254, Method: STANDARD PLATE", "value": "inactive; negative"}, {"measurement": "mutagenic call", "setting": "[5]", "value": "inactive; negative"}, {"measurement": "mutagenic call", "setting": "Test System: AMES SALMONELLA TYPHIMURIUM, Strain/Indicator: TA98, Metabolic Activation: RAT, LIVER, S-9, AROCLOR 1254, Method: PREINCUBATION", "value": "inactive; negative"}, {"measurement": "mutagenic call", "setting": "[10]", "value": "inactive; negative"}, {"measurement": "mutagenic call", "setting": "[3]", "value": "inactive; negative"}, {"measurement": "mutagenic call", "setting": "[4]", "value": "inactive; negative"}, {"measurement": "mutagenic call", "setting": "[8]", "value": "inactive; negative"}, {"measurement": "mutagenic call", "setting": "[11]", "value": "inactive; negative"}, {"measurement": "mutagenic call", "setting": "[9]", "value": "inactive; negative"}, {"measurement": "mutagenic call", "setting": "[12]", "value": "inactive; negative"}, {"measurement": "mutagenic call", "setting": "Test System: AMES SALMONELLA TYPHIMURIUM, Strain/Indicator: TA1538, Metabolic Activation: NONE, Method: STANDARD PLATE", "value": "inactive; negative"}, {"measurement": "mutagenic call", "setting": "Test System: AMES SALMONELLA TYPHIMURIUM, Strain/Indicator: TA1538, Metabolic Activation: RAT, LIVER, S-9, AROCLOR 1254, Method: STANDARD PLATE", "value": "inactive; negative"}]}
